Key:
Propionibacterium acnes = conditions: versus clindamycin or erythromycin; Leyden 2001; cited from earlier work
[1] = Solubility of BP in solvents; assay type: physicochemical
[2] = water and most dermatologically safe solvents; cited from earlier work

## O=C(OOC(=O)c1ccccc1)c1ccccc1 [BP, benzoyl peroxide]
Propionibacterium acnes
  Effectiveness in killing the bacteria responsible for causing acne: more effective than either clindamycin or erythromycin
[1]
  Solubility of BP in absolute alcohol: poor
[2]
  Solubility of BP in water: virtually insoluble
